Measured values as given in US20220313780A1, “METHODS AND COMPOSITIONS FOR TREATING INFLAMMATORY CONDITIONS” (THE SCRIPPS RESEARCH INSTITUTE, priority 2019, published 2022).
“Also recorded” adds a separate entry of the source.

Test system: caspase 1
Assay: Caspase 1 activity assay in PMA-differentiated THP1 cells treated with LPS and ATP
Format: cell-based, human
Details: for caspase 1 activity: peptide 50 μM for 60 min before LPS (1 μg/mL) and ATP (5 mM), THP1 cells
Method: THP1-null (THP1) cells were plated at a final concentration of 1×10^6/mL in 96 well plates and incubated with PMA (0.5 μM) for 3 hours 37° C. in supplemented RPMI. Media was subsequently changed every 24 hours for 3 days. Various subsets of wells were selected and cells were treated for 60 minutes at 37° C. in serum-free RPMI with: (A) APC (4 μg/mL), TR47 (50 μM-2 nM), scrTR47 (50 μM), SFLLRN (50 μM), TFLLRN (50 μM); (B) P3R (50 μM-500 nM), P3K (50 μM); (C) APC (4 or 1 μg/mL), TR47 (8 nM), P3R (500 nM) or TR47+P3R (8 nM and 500 nM, respectively); (D) TR47 (0-128 nM) (●)±P3R (500 nM) (□); (E) P3R (0-500 nM) (●)±TR47 (1 nM) (□). Following DPBS wash, cells were incubated with LPS (1 μg/mL) for 3 hours at 37° C. in serum-free RPMI. After a DPBS wash, cells were incubated with ATP (5 mM) in the presence or absence of 10 μM YVAD (caspase 1 inhibitor) or 2.5 μM ZVAD (pan-caspase inhibitor) for 45 minutes at 37° C., prior to performing the caspase 1 activity assay following manufacturer's directions measuring luminescence (relative luminescent units, RLU). (D & E) Experimental caspase 1 activity was normalized to YVAD (caspase 1 inhibitor) luminescence units. (A-E) Data points represent mean±S.D. of at least 3 independent experiments. *P<0.05 (vs. LPS+ATP); #P<0.05 (vs. LPS+ATP & APC, TR47 or P3R); **P<0.005 (vs. LPS+ATP & TR47+500 nM P3R); n.s. not significant.
THP1 cells were plated at a final concentration of 1×10^6/mL in 96 well plates and incubated with PMA (0.5 μM) for 3 hours 37° C. in supplemented RPMI. Media was subsequently changed every 24 hours for 3 days. Selected wells were treated with APC (4 μg/mL), (A) 50 μM or (B) 2 μM of P3R, P3Rm, P3R 51-65, P3R 51-59, P3R 54-59 or P3R 59-65 for 1 hour, washed with DPBS, and incubated with LPS (1 μg/mL) for 3 hours at 37° C. in serum-free RPMI. Cells were washed with DPBS and incubated with ATP (5 mM) in the presence or absence of 10 μM YVAD (caspase 1 inhibitor; C1i) or 2.5 μM ZVAD (pan-caspase inhibitor; pCi) for 45 minutes at 37° C., prior to performing the caspase 1 activity assay following manufacturer's directions measuring luminescence (relative luminescent units, RLU). (C) Diagram showing the PAR3 sequence, peptide sequences and relative (anti-inflammatory) activity. These include sequences of P3R (SEQ ID NO:4), P3Rm (SEQ ID NO:8), P3R 51-65 (SEQ ID NO:9), P3R 51-59 (SEQ ID NO:10), P3R 54-59 (SEQ ID NO:54) and P3R 59-65 (SEQ ID NO:55).
THP1 cells were plated at a final concentration of 1×10^6/mL in 96 well plates and incubated with PMA (0.5 μM) for 3 hours 37° C. in supplemented RPMI. Media was subsequently changed every 24 hours for 3 days. Selected wells were treated with APC (4 μg/mL), TR47, in (A) 9-mer (TR47 9-mer; NPNDKYEPF (SEQ ID NO:36)) or Ac-TR47 (Acylated TR47) at either 50 μM or 10 nM or (B) 50 μM of 16-mer-TR47, 8-mer-TR47, 6-mer-TR47, TR47 N−1, TR47 N−2, TR47 N−5, TR47AQ, TR47AD, TR47AA or TR48-54 for 1 hour, washed with DPBS, and incubated with LPS (1 μg/mL) for 3 hours at 37° C. in serum-free RPMI. Cells were washed with DPBS and incubated with ATP (5 mM) in the presence or absence of 10 μM YVAD (caspase 1 inhibitor; C1i) or 2.5 μM ZVAD (pan-caspase inhibitor; pCi) for 45 minutes at 37° C., prior to performing the caspase 1 activity assay following manufacturer's directions measuring luminescence (relative luminescent units, RLU). #P<0.001 (vs. LPS+ATP), **P<0.005 (vs. LPS+ATP), * (P<0.05 vs. LPS+ATP). (C) Diagram showing the PAR1 sequence, peptide sequences and relative (anti-inflammatory) activity. These include sequences of TR47 (SEQ ID NO:7), Ac-TR47 (SEQ ID NO:56), 16-mer-TR47 (SEQ ID NO:43), 9-mer-TR47 (SEQ ID NO:36), 8-mer-TR47 (SEQ ID NO:35), 6-mer-TR47 (SEQ ID NO:33), TR47 N−1 (SEQ ID NO:47), TR47 N−2 (SEQ ID NO:51), TR47 N−5 (SEQ ID NO:48), TR47AQ (SEQ ID NO:49), TR47AD (SEQ ID NO:52), TR47AA (SEQ ID NO:50) and TR48-54 (SEQ ID NO:53). […]

Sequence | normalized caspase 1 activity (P3R at ≤500 nM with 1 nM TR47) | caspase 1 activity | caspase 1 activity normalized to caspase 1 inhibited conditions (TR47 at <10 nM in the presence of 500 nM P3R)
GAPPNSFEEFPFSALEGWTGATIT [P3R, PAR3-derived 24-mer peptide] | a significant reduction in normalized caspase 1 activity was observed | reduced caspase 1 activity; also recorded: a significant reduction in caspase 1 activity was observed | 
NPNDKYEPFWEDEEKNESGL [TR47, PAR1-derived 20 amino acid peptide] |  | similarly reduced caspase 1 activity | a reduction in caspase 1 activity was observed
